Measured values taken from PubChem BioAssay AID248 (DTP/NCI, 2004).
“And” between values parts separate entries of the source, which are not always exact repeats. Equal entries are not always repeated. Inconclusive results and toxic doses are left out.

Tested on: L1210 leukemia ip in BDF1 mice, survival T/C
Experiment: NCI In Vivo Anticancer Drug Screen. Data for tumor model L1210 Leukemia (intraperitoneal) in B6D2F1 (BDF1) mice
Details: endpoint: mean survival time, higher = longer survival
Procedure, shortened: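 Transplanted-tumor mice were given test agent; controls received vehicle only. Survival readings from the two groups were divided (treated over control).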

[1] = dose: 100.0 mg/kg/injection, schedule: Q01DX001 (sc), vehicle: steriod suspending solution
[2] = dose: 200.0 mg/kg/injection, schedule: Q01DX001 (sc), vehicle: steriod suspending solution
[3] = dose: 400.0 mg/kg/injection, schedule: Q01DX001 (sc), vehicle: steriod suspending solution
[4] = dose: 25.0 mg/kg/injection, schedule: Q04DX003 (ip), vehicle: saline
[5] = dose: 100.0 mg/kg/injection, schedule: Q01DX009 (ip), vehicle: Klucel (hydroxypropylcellulose) (HPC)
[6] = dose: 100.0 mg/kg/injection, schedule: Q01DX001 (ip), vehicle: saline
[7] = dose: 200.0 mg/kg/injection, schedule: Q01DX001 (ip), vehicle: saline
[8] = dose: 400.0 mg/kg/injection, schedule: Q01DX001 (ip), vehicle: saline
[9] = dose: 100.0 mg/kg/injection, schedule: Q04DX003 (ip), vehicle: saline with Tween-80
[10] = dose: 200.0 mg/kg/injection, schedule: Q04DX003 (ip), vehicle: saline with Tween-80
[11] = dose: 400.0 mg/kg/injection, schedule: Q04DX003 (ip), vehicle: saline with Tween-80
[12] = dose: 100.0 mg/kg/injection, schedule: Q01DX009 (ip), vehicle: saline with Tween-80
[13] = dose: 200.0 mg/kg/injection, schedule: Q01DX009 (ip), vehicle: saline with Tween-80
[14] = dose: 400.0 mg/kg/injection, schedule: Q01DX009 (ip), vehicle: saline with Tween-80
[15] = dose: 100.0 mg/kg/injection, schedule: Q04DX002 (ip), vehicle: saline
[16] = dose: 200.0 mg/kg/injection, schedule: Q04DX002 (ip), vehicle: saline

COc1ccc2c(c1)CC[C@@H]1[C@@H]2CC[C@]2(C)/C(=N\O)CC[C@@H]12
T/C [1]: 100 % of control | T/C (dose: 100.0 mg/kg/injection, schedule: Q04DX003 (ip), vehicle: steriod suspending solution): 102 % of control | T/C [2]: 100 % of control | T/C (dose: 200.0 mg/kg/injection, schedule: Q04DX003 (ip), vehicle: steriod suspending solution): 100 % of control | T/C [3]: 97 % of control | T/C (dose: 400.0 mg/kg/injection, schedule: Q04DX003 (ip), vehicle: steriod suspending solution): 97 % of control

O=C(O)C(O)C(=O)O.[NH2-].[NH2-].[Pt+2]
T/C (dose: 1.0 mg/kg/injection, schedule: Q01DX001 (ip), vehicle: other): 94 % of control | T/C (dose: 2.0 mg/kg/injection, schedule: Q01DX001 (ip), vehicle: other): 95 % of control | T/C (dose: 2.0 mg/kg/injection, schedule: Q01DX009 (ip), vehicle: other): 101 % of control | T/C (dose: 4.0 mg/kg/injection, schedule: Q01DX001 (ip), vehicle: other): 98 % of control | T/C (dose: 4.0 mg/kg/injection, schedule: Q01DX009 (ip), vehicle: other): 101 % of control | T/C (dose: 8.0 mg/kg/injection, schedule: Q01DX001 (ip), vehicle: other): 98 % of control | T/C (dose: 8.0 mg/kg/injection, schedule: Q01DX009 (ip), vehicle: other): 101 % of control | T/C (dose: 16.0 mg/kg/injection, schedule: Q01DX001 (ip), vehicle: other): 101 % of control | T/C [4]: 112 % of control | T/C (dose: 32.0 mg/kg/injection, schedule: Q01DX001 (ip), vehicle: other): 109 % of control | T/C (dose: 32.0 mg/kg/injection, schedule: Q01DX009 (ip), vehicle: other): 187 % of control | T/C (dose: 40.0 mg/kg/injection, schedule: Q01DX001 (ip), vehicle: other): 122 % of control | T/C (dose: 60.0 mg/kg/injection, schedule: Q01DX001 (ip), vehicle: other): 158 % of control | T/C (dose: 80.0 mg/kg/injection, schedule: Q01DX001 (ip), vehicle: other): 168 % of control | T/C (dose: 100.0 mg/kg/injection, schedule: Q01DX001 (ip), vehicle: other): 114 % of control | T/C (dose: 128.0 mg/kg/injection, schedule: Q01DX001 (ip), vehicle: other): 121 % of control

O=C(NCc1ccco1)c1cccc(F)c1
T/C (dose: 25.0 mg/kg/injection, schedule: Q01DX009 (ip), vehicle: Klucel (hydroxypropylcellulose) (HPC)): 93 % of control | T/C (dose: 50.0 mg/kg/injection, schedule: Q01DX009 (ip), vehicle: Klucel (hydroxypropylcellulose) (HPC)): 95 % of control | T/C [5]: 104 % of control and 109 % of control

C=C(C)[C@@H]1CC[C@@H](C)C[C@H]1O
T/C [6]: 103 % of control | T/C [7]: 100 % of control | T/C [8]: 105 % of control

CCOC(=O)/C(C#N)=N/O
T/C (dose: 18.8 mg/kg/injection, schedule: Q01DX009 (ip), vehicle: saline): 94 % of control | T/C (dose: 18.8 mg/kg/injection, schedule: Q04DX003 (ip), vehicle: saline): 95 % of control | T/C (dose: 37.5 mg/kg/injection, schedule: Q01DX009 (ip), vehicle: saline): 91 % of control | T/C (dose: 37.5 mg/kg/injection, schedule: Q04DX003 (ip), vehicle: saline): 97 % of control | T/C (dose: 75.0 mg/kg/injection, schedule: Q04DX003 (ip), vehicle: saline): 97 % of control

CCN(CC)CCOC(=O)c1ccc(OCCOc2ccc(C(C)(C)CC(C)(C)C)cc2)c([N+](=O)[O-])c1
T/C (dose: 100.0 mg/kg/injection, schedule: Q04DX003 (ip), vehicle: saline sonified): 96 % of control | T/C (dose: 200.0 mg/kg/injection, schedule: Q04DX003 (ip), vehicle: saline sonified): 87 % of control | T/C (dose: 400.0 mg/kg/injection, schedule: Q04DX003 (ip), vehicle: saline sonified): 98 % of control

O=C(CC(O)(C(F)(F)F)C(F)(F)F)c1cccc(S(=O)(=O)F)c1
T/C [9]: 95 % of control | T/C [10]: 100 % of control

Cc1cc(C)[n+](C)c(C)c1
T/C (dose: 12.5 mg/kg/injection, schedule: Q04DX003 (ip), vehicle: saline): 96 % of control | T/C [4]: 93 % of control | T/C (dose: 50.0 mg/kg/injection, schedule: Q04DX003 (ip), vehicle: saline): 101 % of control | T/C (dose: 100.0 mg/kg/injection, schedule: Q04DX003 (ip), vehicle: saline): 93 % of control

CCC(C)NC(=O)Oc1cccc(NC(=O)OC)c1 (configuration not stated)
T/C [9]: 95 % of control | T/C [10]: 93 % of control | T/C [11]: 92 % of control

O=C1O/C(=C2\OCc3ccccc32)c2ccccc21
T/C (dose: 50.0 mg/kg/injection, schedule: Q01DX001 (ip), vehicle: carboxymethylcellulose (CMC)): 91 % of control | T/C (dose: 100.0 mg/kg/injection, schedule: Q01DX001 (ip), vehicle: carboxymethylcellulose (CMC)): 107 % of control | T/C (dose: 200.0 mg/kg/injection, schedule: Q01DX001 (ip), vehicle: carboxymethylcellulose (CMC)): 100 % of control | T/C (dose: 400.0 mg/kg/injection, schedule: Q01DX001 (ip), vehicle: carboxymethylcellulose (CMC)): 91 % of control

C#CCN(C)CCO
T/C [9]: 97 % of control | T/C [10]: 106 % of control | T/C [11]: 100 % of control

N#Cc1ncc(-c2ccccc2)nc1C#N
T/C [12]: 103 % of control | T/C [13]: 100 % of control | T/C [14]: 88 % of control

O=C(O)CCCCCCCCCCCCCCCO
T/C [9]: 96 % of control | T/C [10]: 96 % of control | T/C [11]: 91 % of control

CC1(C)OC2OCC(O)C2O1 (configuration not stated)
T/C (dose: 50.0 mg/kg/injection, schedule: Q04DX002 (ip), vehicle: saline): 100 % of control | T/C [15]: 104 % of control | T/C [16]: 110 % of control

CC12CCC3C(CC4OC45CC(O)CCC35C)C1CCC21CO1 (configuration not stated)
T/C (dose: 50.0 mg/kg/injection, schedule: Q01DX001 (sc), vehicle: steriod suspending solution): 98 % of control | T/C [1]: 104 % of control | T/C [2]: 95 % of control | T/C [3]: 101 % of control

Cc1cc(Br)c2ccccc2c1NS(=O)(=O)c1ccccc1
T/C [12]: 100 % of control | T/C [9]: 109 % of control | T/C [13]: 90 % of control | T/C [10]: 100 % of control | T/C [14]: 92 % of control | T/C [11]: 105 % of control

CCOC(=O)/C(C#N)=C\C=C\c1ccccc1
T/C [5]: 92 % of control | T/C (dose: 100.0 mg/kg/injection, schedule: Q04DX003 (ip), vehicle: Klucel (hydroxypropylcellulose) (HPC)): 96 % of control | T/C (dose: 200.0 mg/kg/injection, schedule: Q01DX009 (ip), vehicle: Klucel (hydroxypropylcellulose) (HPC)): 98 % of control | T/C (dose: 200.0 mg/kg/injection, schedule: Q04DX003 (ip), vehicle: Klucel (hydroxypropylcellulose) (HPC)): 98 % of control | T/C (dose: 400.0 mg/kg/injection, schedule: Q04DX003 (ip), vehicle: Klucel (hydroxypropylcellulose) (HPC)): 102 % of control

CCCCCCCCCCCCCCCCOc1ccccc1C(C)=O
T/C [12]: 92 % of control | T/C [9]: 89 % of control | T/C [13]: 96 % of control | T/C [10]: 98 % of control | T/C [14]: 93 % of control | T/C [11]: 93 % of control

CN(C=O)c1ccccc1
T/C [15]: 106 % of control | T/C [16]: 102 % of control | T/C (dose: 400.0 mg/kg/injection, schedule: Q04DX002 (ip), vehicle: saline): 95 % of control

O=C(c1ccccc1Br)C(Br)C(Br)c1ccccc1 (configuration not stated)
T/C [12]: 98 % of control | T/C [13]: 93 % of control | T/C [14]: 91 % of control

C(=C\c1cccc2ccccc12)/c1ccncc1
T/C (dose: 75.0 mg/kg/injection, schedule: Q01DX001 (ip), vehicle: carboxymethylcellulose (CMC)): 97 % of control | T/C (dose: 150.0 mg/kg/injection, schedule: Q01DX001 (ip), vehicle: carboxymethylcellulose (CMC)): 88 % of control | T/C (dose: 300.0 mg/kg/injection, schedule: Q01DX001 (ip), vehicle: carboxymethylcellulose (CMC)): 90 % of control

COc1ccc(NC(=S)N(C)C)cc1
T/C [12]: 98 % of control | T/C [13]: 110 % of control | T/C [14]: 98 % of control

Cc1ccc(NNC(=O)C(O)C(O)C(O)C(O)CO)cc1 (configuration not stated)
T/C (dose: 50.0 mg/kg/injection, schedule: Q01DX009 (ip), vehicle: saline): 92 % of control | T/C (dose: 100.0 mg/kg/injection, schedule: Q01DX009 (ip), vehicle: saline): 96 % of control | T/C (dose: 200.0 mg/kg/injection, schedule: Q01DX009 (ip), vehicle: saline): 100 % of control

CCOC(=O)C(Cc1c(C)c(OC)c(CC(C(=O)OCC)C(=O)OCC)c(C)c1OC)C(=O)OCC
T/C [12]: 101 % of control | T/C [9]: 93 % of control | T/C [13]: 97 % of control | T/C [10]: 88 % of control | T/C [14]: 92 % of control | T/C [11]: 90 % of control

CC(=O)C(C(C)=O)C(C)(C)C
T/C (dose: 50.0 mg/kg/injection, schedule: Q01DX001 (ip), vehicle: saline): 95 % of control | T/C [6]: 97 % of control | T/C [7]: 90 % of control | T/C [8]: 95 % of control
